Measured values reported in ChEMBL document CHEMBL5346923, “Novel pyridinium cationic pleuromutilin analogues overcoming bacterial multidrug resistance” (Eur J Med Chem, 2023).
In brackets after ≈: the same amount, converted by molar mass.

Key:
Format in all cases: functional
[1] = test system: Escherichia coli; experiment: Antibacterial activity against Escherichia coli MG1655 assessed as inhibition of bacterial growth measured after 24 hrs by MH broth based assay
[2] = test system: Escherichia coli; experiment: Antibacterial activity against Escherichia coli MG1655 harbouring acrB gene assessed as inhibition of bacterial growth measured after 24 hrs by MH broth based assay
[3] = test system: Staphylococcus aureus; experiment: Antibacterial activity against methicillin-resistant Staphylococcus aureus ATCC 43300 assessed as inhibition of bacterial growth measured after 24 hrs by MH broth based assay
[4] = test system: Staphylococcus aureus; experiment: Antibacterial activity against Staphylococcus aureus ATCC 29213 assessed as inhibition of bacterial growth measured after 24 hrs by MH broth based assay
[5] = test system: Bacillus subtilis; experiment: Antibacterial activity against Bacillus subtilis ATCC 6633 assessed as inhibition of bacterial growth measured after 24 hrs by MH broth based assay
[6] = test system: Klebsiella pneumoniae; experiment: Antibacterial activity against Klebsiella pneumonia CMCC (B) 46117 assessed as inhibition of bacterial growth measured after 24 hrs by MH broth based assay
[7] = test system: Proteus; experiment: Antibacterial activity against Proteus CMCC (B) 49027 assessed as inhibition of bacterial growth measured after 24 hrs by MH broth based assay
[8] = test system: Enterococcus; experiment: Antibacterial activity against vancomycin-resistant Enterococcus ATCC 700221 assessed as inhibition of bacterial growth measured after 24 hrs by MH broth based assay
[9] = test system: Escherichia coli; experiment: Antibacterial activity against Escherichia coli ATCC 25922 assessed as inhibition of bacterial growth measured after 24 hrs by MH broth based assay
[10] = test system: Staphylococcus epidermidis; experiment: Antibacterial activity against methicillin-resistant Staphylococcus epidermidis ATCC 51625 assessed as inhibition of bacterial growth measured after 24 hrs by MH broth based assay
[11] = test system: Streptococcus pneumoniae; experiment: Antibacterial activity against Streptococcus pneumoniae ATCC 49619 assessed as inhibition of bacterial growth measured after 24 hrs by MH broth based assay

Structure (SMILES): C=C[C@]1(C)C[C@@H](OC(=O)CSc2cc[n+](CC(=O)NCCc3ccc(O)cc3)cc2)[C@]2(C)[C@H](C)CC[C@]3(CCC(=O)[C@H]32)[C@@H](C)[C@@H]1O.[I-]
- MIC [1]: 64 µg/mL
- MIC [2]: 1 µg/mL
- MIC [3]: 0.5 µg/mL
- MIC [4]: 0.5 µg/mL
- MIC [5]: > 64 µg/mL
- MIC [6]: 32 µg/mL
- MIC [7]: > 64 µg/mL
- MIC [8]: 64 µg/mL
- MIC [9]: 64 µg/mL
- MIC [10]: 0.25 µg/mL
- MIC [11]: 0.25 µg/mL

Structure (SMILES): C=C[C@]1(C)C[C@@H](OC(=O)CSc2cc[n+](CCO)cc2)[C@]2(C)[C@H](C)CC[C@]3(CCC(=O)[C@H]32)[C@@H](C)[C@@H]1O.[I-]
- MIC [1]: 64 µg/mL
- MIC [2]: 0.5 µg/mL
- MIC [3]: 1 µg/mL
- MIC [4]: 1 µg/mL
- MIC [5]: 64 µg/mL
- MIC [6]: 32 µg/mL
- MIC [7]: 64 µg/mL
- MIC [8]: 32 µg/mL
- MIC [9]: 64 µg/mL
- MIC [10]: 1 µg/mL
- MIC [11]: 0.5 µg/mL

Structure (SMILES): C=C[C@]1(C)C[C@@H](OC(=O)CSc2cc[n+](CC(=O)N3CCCC3)cc2)[C@]2(C)[C@H](C)CC[C@]3(CCC(=O)[C@H]32)[C@@H](C)[C@@H]1O.[I-]
- MIC [1]: 64 µg/mL
- MIC [2]: 4 µg/mL
- MIC [3]: 4 µg/mL
- MIC [4]: 4 µg/mL
- MIC [5]: > 64 µg/mL
- MIC [6]: 64 µg/mL
- MIC [7]: > 64 µg/mL
- MIC [8]: 64 µg/mL
- MIC [9]: 64 µg/mL
- MIC [10]: 2 µg/mL
- MIC [11]: 1 µg/mL

Structure (SMILES): C=C[C@]1(C)C[C@@H](OC(=O)CSc2cc[n+](Cc3ccc(C)cc3)cc2)[C@]2(C)[C@H](C)CC[C@]3(CCC(=O)[C@H]32)[C@@H](C)[C@@H]1O.[I-]
- MIC [1]: 64 µg/mL
- MIC [2]: 2 µg/mL
- MIC [3]: 0.5 µg/mL
- MIC [4]: 0.5 µg/mL
- MIC [5]: > 64 µg/mL
- MIC [6]: 32 µg/mL
- MIC [7]: > 64 µg/mL
- MIC [8]: 64 µg/mL
- MIC [9]: 64 µg/mL
- MIC [10]: 0.063 µg/mL
- MIC [11]: < 0.031 µg/mL

Structure (SMILES): C=C[C@]1(C)C[C@@H](OC(=O)CSc2cc[n+](CCCC)cc2)[C@]2(C)[C@H](C)CC[C@]3(CCC(=O)[C@H]32)[C@@H](C)[C@@H]1O.[Br-]
- MIC [1]: 64 µg/mL
- MIC [2]: 1 µg/mL
- MIC [3]: 0.25 µg/mL
- MIC [4]: 0.25 µg/mL
- MIC [5]: 64 µg/mL
- MIC [6]: 32 µg/mL
- MIC [7]: > 64 µg/mL
- MIC [8]: 16 µg/mL
- MIC [9]: 64 µg/mL
- MIC [10]: 0.125 µg/mL
- MIC [11]: 0.063 µg/mL

Structure (SMILES): C=C[C@]1(C)C[C@@H](OC(=O)CSc2cc[n+](C(C)C)cc2)[C@]2(C)[C@H](C)CC[C@]3(CCC(=O)[C@H]32)[C@@H](C)[C@@H]1O.[I-]
- MIC [1]: 64 µg/mL
- MIC [2]: 2 µg/mL
- MIC [3]: 1 µg/mL
- MIC [4]: 0.5 µg/mL
- MIC [5]: 64 µg/mL
- MIC [6]: 64 µg/mL
- MIC [7]: 64 µg/mL
- MIC [8]: 64 µg/mL
- MIC [9]: 64 µg/mL
- MIC [10]: 2 µg/mL
- MIC [11]: 1 µg/mL

Structure (SMILES): C=C[C@]1(C)C[C@@H](OC(=O)CSc2cc[n+](Cc3cccc(NC(=O)OC(C)(C)C)c3)cc2)[C@]2(C)[C@H](C)CC[C@]3(CCC(=O)[C@H]32)[C@@H](C)[C@@H]1O.[I-]
- MIC [1]: 64 µg/mL
- MIC [2]: 4 µg/mL
- MIC [3]: 0.5 µg/mL
- MIC [4]: 0.5 µg/mL
- MIC [5]: 64 µg/mL
- MIC [6]: 64 µg/mL
- MIC [7]: > 64 µg/mL
- MIC [8]: 16 µg/mL
- MIC [9]: 64 µg/mL
- MIC [10]: 0.125 µg/mL
- MIC [11]: < 0.031 µg/mL

Structure (SMILES): C=C[C@]1(C)C[C@@H](OC(=O)CSc2cc[n+](CCCC)cc2)[C@]2(C)[C@H](C)CC[C@]3(CCC(=O)[C@H]32)[C@@H](C)[C@@H]1O.[I-]
- MIC [1]: 64 µg/mL
- MIC [2]: 0.5 µg/mL
- MIC [3]: 0.25 µg/mL
- MIC [4]: 0.25 µg/mL
- MIC [5]: 64 µg/mL
- MIC [6]: 16 µg/mL
- MIC [7]: > 64 µg/mL
- MIC [8]: 16 µg/mL
- MIC [9]: 64 µg/mL
- MIC [10]: 0.063 µg/mL
- MIC [11]: < 0.031 µg/mL

Structure (SMILES): C=C[C@]1(C)C[C@@H](OC(=O)CSc2cc[n+](CCCCCCC(=O)O)cc2)[C@]2(C)[C@H](C)CC[C@]3(CCC(=O)[C@H]32)[C@@H](C)[C@@H]1O.[I-]
- MIC [1]: 64 µg/mL
- MIC [2]: 32 µg/mL
- MIC [3]: 0.5 µg/mL
- MIC [4]: 0.5 µg/mL
- MIC [5]: 64 µg/mL
- MIC [6]: 64 µg/mL
- MIC [7]: 64 µg/mL
- MIC [8]: 64 µg/mL
- MIC [9]: 64 µg/mL
- MIC [10]: 2 µg/mL
- MIC [11]: 0.5 µg/mL

Structure (SMILES): C=C[C@]1(C)C[C@@H](OC(=O)CSc2cc[n+](CCCCCC(=O)O)cc2)[C@]2(C)[C@H](C)CC[C@]3(CCC(=O)[C@H]32)[C@@H](C)[C@@H]1O.[I-]
- MIC [1]: 64 µg/mL
- MIC [2]: 32 µg/mL
- MIC [3]: 16 µg/mL
- MIC [4]: 8 µg/mL
- MIC [5]: > 64 µg/mL
- MIC [6]: > 64 µg/mL
- MIC [7]: > 64 µg/mL
- MIC [8]: 64 µg/mL
- MIC [9]: > 64 µg/mL
- MIC [10]: 8 µg/mL
- MIC [11]: 4 µg/mL

Structure (SMILES): C=CCC[n+]1ccc(SCC(=O)O[C@@H]2C[C@@](C)(C=C)[C@@H](O)[C@H](C)[C@]34CCC(=O)[C@H]3[C@@]2(C)[C@H](C)CC4)cc1.[I-]
- MIC [1]: 32 µg/mL
- MIC [2]: 0.25 µg/mL
- MIC [3]: 0.25 µg/mL
- MIC [4]: 0.25 µg/mL
- MIC [5]: 64 µg/mL
- MIC [6]: 16 µg/mL
- MIC [7]: 64 µg/mL
- MIC [8]: 16 µg/mL
- MIC [9]: 64 µg/mL
- MIC [10]: 0.25 µg/mL
- MIC [11]: 0.125 µg/mL

Structure (SMILES): C=C[C@]1(C)C[C@@H](OC(=O)CSc2cc[n+](COC)cc2)[C@]2(C)[C@H](C)CC[C@]3(CCC(=O)[C@H]32)[C@@H](C)[C@@H]1O.[I-]
- MIC [1]: 64 µg/mL
- MIC [2]: 1 µg/mL
- MIC [3]: 0.25 µg/mL
- MIC [4]: 0.25 µg/mL
- MIC [5]: 64 µg/mL
- MIC [6]: 64 µg/mL
- MIC [7]: > 64 µg/mL
- MIC [8]: 32 µg/mL
- MIC [9]: 64 µg/mL
- MIC [10]: 0.5 µg/mL
- MIC [11]: 0.25 µg/mL

Structure (SMILES): C=C[C@]1(C)C[C@@H](OC(=O)CSc2cc[n+](Cc3ccc(OC)cc3)cc2)[C@]2(C)[C@H](C)CC[C@]3(CCC(=O)[C@H]32)[C@@H](C)[C@@H]1O.[I-]
- MIC [1]: 64 µg/mL
- MIC [2]: 0.5 µg/mL
- MIC [3]: 0.125 µg/mL
- MIC [4]: 0.063 µg/mL
- MIC [5]: 16 µg/mL
- MIC [6]: 4 µg/mL
- MIC [7]: > 64 µg/mL
- MIC [8]: 4 µg/mL
- MIC [9]: 64 µg/mL
- MIC [10]: 0.031 µg/mL
- MIC [11]: < 0.031 µg/mL

Structure (SMILES): C=C[C@]1(C)C[C@@H](OC(=O)CSc2cc[n+](CC(C)C)cc2)[C@]2(C)[C@H](C)CC[C@]3(CCC(=O)[C@H]32)[C@@H](C)[C@@H]1O.[I-]
- MIC [1]: 64 µg/mL
- MIC [2]: 2 µg/mL
- MIC [3]: 0.5 µg/mL
- MIC [4]: 0.5 µg/mL
- MIC [5]: 64 µg/mL
- MIC [6]: 64 µg/mL
- MIC [7]: > 64 µg/mL
- MIC [8]: 64 µg/mL
- MIC [9]: 64 µg/mL
- MIC [10]: 0.5 µg/mL
- MIC [11]: 0.25 µg/mL

Structure (SMILES): CN[C@H](CC(C)C)C(=O)N[C@H]1C(=O)N[C@@H](CC(N)=O)C(=O)N[C@H]2C(=O)N[C@H]3C(=O)N[C@H](C(=O)N[C@H](C(=O)O)c4cc(O)cc(O)c4-c4cc3ccc4O)[C@H](O)c3ccc(c(Cl)c3)Oc3cc2cc(c3O[C@@H]2O[C@H](CO)[C@@H](O)[C@H](O)[C@H]2O[C@H]2C[C@](C)(N)[C@H](O)[C@H](C)O2)Oc2ccc(cc2Cl)[C@H]1O [VANCOMYCIN]
- MIC [1]: > 64 µg/mL
- MIC [2]: > 64 µg/mL
- MIC [5]: 0.125 µg/mL (≈ 0.0863 µM)
- MIC [6]: > 64 µg/mL
- MIC [7]: > 64 µg/mL
- MIC [8]: 64 µg/mL (≈ 44.2 µM)
- MIC [9]: > 64 µg/mL
- MIC [10]: 0.5 µg/mL (≈ 0.345 µM)
- MIC [11]: 0.25 µg/mL (≈ 0.173 µM)
